# Results taken from US20240083919A1, “Metal Complexes and Methods for the Same” (Colgate-Palmolive Company, priority 2020, published 2024).
# Like-named read-outs stand apart in the source and are kept apart here.
# What was measured:
# Malassezia furfur = test: MIC by doubling dilutions, visual turbidity, Malassezia furfur; type: cell-based; settings: for MIC: about 35° C., 3 to 5 days, highest dilution that completely inhibited growth; for Final Dilution (Ratio): doubling dilutions from initial concentration 0.5% (CHA-Zn) or 1% (others)
# Procedure: (§1) A suspension of Malassezia furfur was also prepared and exposed to each of the series of doubling dilutions. The samples were incubated at about 35° C. for 3 to 5 days or until growth was apparent in a growth control tube. Following incubation, each of the samples were visually examined for growth on the basis of turbidity.
# Trichophyton rubrum = test: MIC by doubling dilutions, visual turbidity, Trichophyton rubrum; type: cell-based; settings: for MIC: about 35° C., 3 to 14 days, highest dilution that completely inhibited growth; for Final Dilution (Ratio): doubling dilutions from initial concentration 0.5% (CHA-Zn) or 1% (others)
# Procedure: as §1, with “of Trichophyton rubrum” for “of Malassezia furfur”, “to 14” for “to 5”, “turbidity. […] It should be appreciated that a relatively lower MIC value indicates a relatively greater efficacy against the microbe.” for “turbidity.”
Compound,MIC (Malassezia furfur; read-out: MIC),Final Dilution (Ratio) (Malassezia furfur),MIC (Trichophyton rubrum; read-out: MIC),Final Dilution (Ratio) (Trichophyton rubrum),MIC (Malassezia furfur),MIC (Malassezia furfur; listed as zinc nitrate),MIC (Trichophyton rubrum)
"CCCCCCCC(=O)NO [CHA, caprylhydroxamic acid]",~312 µg/mL,32 Ratio,~156 µg/mL,64 Ratio,–,–,–
Cc1cc(CC(C)CC(C)(C)C)n(O)c(=O)c1.NCCO (stereo not drawn) [Piroctone Olamine],–,64 Ratio,–,–,156 ppm,–,–
"O=[N+]([O-])[O-].O=[N+]([O-])[O-].[Zn+2] [Zinc Nitrate (Zn(NO3)2), zinc nitrate]",–,2 Ratio,–,4 Ratio,>5000 ppm,> 5000 ppm,~2500 ppm
caprylhydroxamic-zinc complex [CHA-Zn complex],–,64 Ratio,–,64 Ratio,–,–,–
zinc pyrithione [Zinc pyrithione (ZPT)],–,–,–,512 Ratio,–,–,20 ppm
